Data reported in ChEMBL document CHEMBL1201862, “PubChem BioAssay data set” (2004).
Blank lines part the entries; values can stand above or below the compound they belong to. The source made the active and inactive calls.

Tests used:
[1] = target: Sphingosine 1-phosphate receptor 1 (Homo sapiens, UniProt P21453); assay: Late-stage fluorescence-based dose-response cell-based counterscreen assay to identify agonists of the Sphingosine 1-Phosphate Receptor 4 (S1P4): Sphingosine 1-Phosphate Receptor 1 (S1P1) agonist assay Set 2.; assay type: functional
[2] = target: Sphingosine 1-phosphate receptor 5 (Homo sapiens, UniProt Q9H228); assay: activation of human S1P5 receptor – cell-based, fluorescence, set 2, counter-screen for S1P4 agonist project, late-stage follow-up (AID 504867); assay type: functional
Sequence of Sphingosine 1-phosphate receptor 5 (Q9H228 whole entry): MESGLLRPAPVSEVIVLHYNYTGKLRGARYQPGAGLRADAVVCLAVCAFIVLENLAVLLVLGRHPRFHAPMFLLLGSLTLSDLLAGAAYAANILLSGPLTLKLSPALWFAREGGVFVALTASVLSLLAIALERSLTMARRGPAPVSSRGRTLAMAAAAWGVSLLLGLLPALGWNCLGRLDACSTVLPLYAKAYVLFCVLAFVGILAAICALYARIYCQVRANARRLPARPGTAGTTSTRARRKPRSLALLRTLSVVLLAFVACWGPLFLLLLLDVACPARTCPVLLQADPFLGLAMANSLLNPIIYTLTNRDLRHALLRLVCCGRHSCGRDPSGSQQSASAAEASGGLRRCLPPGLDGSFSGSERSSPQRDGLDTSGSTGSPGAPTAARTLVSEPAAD

[3] = target: Sphingosine 1-phosphate receptor 3 (Homo sapiens, UniProt Q99500); assay: Late-stage fluorescence-based dose-response cell-based counterscreen assay to identify agonists of the Sphingosine 1-Phosphate Receptor 4 (S1P4): Sphingosine 1-Phosphate Receptor 3 (S1P3) agonist assay Set 2.; assay type: functional
[4] = target: Sphingosine 1-phosphate receptor 2 (Homo sapiens, UniProt O95136); assay: activation of human S1P2 receptor – cell-based, fluorescence, set 2, counter-screen for S1P4 agonist project, late-stage follow-up (AID 504873); assay type: functional
Sequence of Sphingosine 1-phosphate receptor 2 (O95136 whole entry): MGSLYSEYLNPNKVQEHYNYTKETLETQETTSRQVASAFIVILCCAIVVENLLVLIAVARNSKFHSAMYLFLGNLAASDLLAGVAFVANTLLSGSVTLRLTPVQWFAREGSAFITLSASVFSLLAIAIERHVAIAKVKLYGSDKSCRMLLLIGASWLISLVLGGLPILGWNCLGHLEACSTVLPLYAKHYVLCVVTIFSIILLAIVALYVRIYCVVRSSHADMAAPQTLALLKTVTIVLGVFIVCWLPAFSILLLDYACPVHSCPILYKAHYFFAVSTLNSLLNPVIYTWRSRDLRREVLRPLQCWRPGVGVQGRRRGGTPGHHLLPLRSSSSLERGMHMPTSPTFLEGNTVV

[5] = Luminescence Cell-Based Dose Retest to Confirm Inhibitors of Cancer Stem Cells. [Related pubchem assays (depositor defined):AID2717, AID2721]; assay type: functional; settings: Homo sapiens
CHO = CHO cell viability loss, potency – luminescence, cytotoxicity control for TLR9-MyD88 binding inhibitor project, dose response (AID 588339); assay type: functional, cell-based, hamster; settings: Cricetulus griseus;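 further: CHO cells stably coexpressing TLR9 and MyD88 fusions from primary screen; compound exposure lasted 48 hours before viability readout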
Beta Lactamase = Beta Lactamase (Pseudomonas aeruginosa, UniProt Q932Y6); assay: BLA reporter interference, concentration series – BLA reporter cells, FRET fluorescence, artefact control for TLR9-MyD88 binding inhibitor project, dose response (AID 588341); assay type: cell-based;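 further: cell based assay in CHO-K1 cells stably expressing beta-lactamase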
[6] = target: Melanin-concentrating hormone receptor 1 (Homo sapiens, UniProt Q99705); assay: Late-stage fluorescence-based counterscreen for antagonists of the G-protein coupled receptor 7 (GPR7): cell-based dose response assay to identify antagonists of the melanin-concentrating hormone receptor 1 (MCHR1) Set 6.; assay type: functional
[7] = target: Neuropeptides B/W receptor type 1 (Homo sapiens, UniProt P48145); assay: human NPBW1 receptor blockade, IC50 – cell-based, fluorescence, dose response, set 6, late-stage follow-up (AID 588583); assay type: functional
Sequence of Neuropeptides B/W receptor type 1 (P48145 whole entry): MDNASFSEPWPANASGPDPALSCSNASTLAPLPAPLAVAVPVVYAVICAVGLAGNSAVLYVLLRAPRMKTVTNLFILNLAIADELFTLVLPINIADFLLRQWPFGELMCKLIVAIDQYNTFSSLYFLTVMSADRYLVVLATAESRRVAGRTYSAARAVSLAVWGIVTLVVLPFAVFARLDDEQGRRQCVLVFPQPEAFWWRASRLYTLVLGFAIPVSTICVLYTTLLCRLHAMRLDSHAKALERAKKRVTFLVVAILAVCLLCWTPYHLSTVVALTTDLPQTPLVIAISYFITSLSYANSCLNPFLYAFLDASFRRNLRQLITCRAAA

[8] = target: DNA dC->dU-editing enzyme APOBEC-3G (Homo sapiens, UniProt Q9HC16); assay: inhibition of APOBEC3G ssDNA deamination – biochemical, fluorescence, single-stranded DNA substrate, SAR follow-up (AID 602136); assay type: functional; settings: read-out: IC50_Mean
[9] = target: DNA dC->dU-editing enzyme APOBEC-3A (Homo sapiens, UniProt P31941); assay: SAR analysis of small molecule inhibitors of APOBEC3A DNA Deaminase via a fluorescence-based single-stranded DNA deaminase assay.; assay type: functional; settings: read-out: IC50_Mean
[10] = target: ALK tyrosine kinase receptor (Homo sapiens, UniProt Q9UM73); assay type: functional;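 further: ALK tested as one member of a kinase panel screen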
[11] = target: Proto-oncogene tyrosine-protein kinase receptor Ret (Homo sapiens, UniProt P07949); assay type: functional;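 further: measured within a kinome-wide profiling panel, RET as the panel member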
Sequence of Proto-oncogene tyrosine-protein kinase receptor Ret (P07949 whole entry): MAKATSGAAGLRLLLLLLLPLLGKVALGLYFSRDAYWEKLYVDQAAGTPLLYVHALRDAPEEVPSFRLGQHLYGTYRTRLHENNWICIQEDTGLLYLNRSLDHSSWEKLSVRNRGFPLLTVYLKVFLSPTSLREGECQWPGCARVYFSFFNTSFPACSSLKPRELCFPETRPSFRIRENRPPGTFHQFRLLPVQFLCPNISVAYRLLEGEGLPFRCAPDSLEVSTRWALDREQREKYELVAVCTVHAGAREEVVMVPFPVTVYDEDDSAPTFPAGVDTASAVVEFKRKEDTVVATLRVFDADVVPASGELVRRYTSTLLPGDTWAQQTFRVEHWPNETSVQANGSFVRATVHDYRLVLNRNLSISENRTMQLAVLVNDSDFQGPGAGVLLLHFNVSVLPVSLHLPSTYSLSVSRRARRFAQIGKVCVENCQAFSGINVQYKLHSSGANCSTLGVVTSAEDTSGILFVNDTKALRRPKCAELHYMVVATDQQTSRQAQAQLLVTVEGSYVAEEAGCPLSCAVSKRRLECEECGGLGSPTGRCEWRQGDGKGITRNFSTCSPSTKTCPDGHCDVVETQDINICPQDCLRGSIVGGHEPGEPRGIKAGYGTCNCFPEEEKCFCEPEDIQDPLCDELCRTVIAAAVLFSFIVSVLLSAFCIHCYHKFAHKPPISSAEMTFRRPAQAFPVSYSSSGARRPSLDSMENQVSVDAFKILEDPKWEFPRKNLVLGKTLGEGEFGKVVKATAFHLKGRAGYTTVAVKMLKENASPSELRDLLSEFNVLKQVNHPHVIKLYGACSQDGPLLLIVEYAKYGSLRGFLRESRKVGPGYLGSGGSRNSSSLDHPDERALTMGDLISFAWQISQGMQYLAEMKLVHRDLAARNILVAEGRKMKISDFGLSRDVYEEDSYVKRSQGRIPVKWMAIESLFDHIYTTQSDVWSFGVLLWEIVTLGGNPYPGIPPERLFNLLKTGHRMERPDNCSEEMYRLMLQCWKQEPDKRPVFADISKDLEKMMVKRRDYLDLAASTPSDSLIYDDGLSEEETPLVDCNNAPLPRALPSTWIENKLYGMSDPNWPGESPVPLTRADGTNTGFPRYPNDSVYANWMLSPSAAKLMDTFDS

[12] = target: Tyrosine-protein kinase Lck (Homo sapiens, UniProt P06239); assay type: functional;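 further: lck was assayed as one member of a kinase panel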
[13] = target: Tyrosine-protein kinase BTK (Homo sapiens, UniProt Q06187); assay type: functional
Sequence of Tyrosine-protein kinase BTK (Q06187 whole entry): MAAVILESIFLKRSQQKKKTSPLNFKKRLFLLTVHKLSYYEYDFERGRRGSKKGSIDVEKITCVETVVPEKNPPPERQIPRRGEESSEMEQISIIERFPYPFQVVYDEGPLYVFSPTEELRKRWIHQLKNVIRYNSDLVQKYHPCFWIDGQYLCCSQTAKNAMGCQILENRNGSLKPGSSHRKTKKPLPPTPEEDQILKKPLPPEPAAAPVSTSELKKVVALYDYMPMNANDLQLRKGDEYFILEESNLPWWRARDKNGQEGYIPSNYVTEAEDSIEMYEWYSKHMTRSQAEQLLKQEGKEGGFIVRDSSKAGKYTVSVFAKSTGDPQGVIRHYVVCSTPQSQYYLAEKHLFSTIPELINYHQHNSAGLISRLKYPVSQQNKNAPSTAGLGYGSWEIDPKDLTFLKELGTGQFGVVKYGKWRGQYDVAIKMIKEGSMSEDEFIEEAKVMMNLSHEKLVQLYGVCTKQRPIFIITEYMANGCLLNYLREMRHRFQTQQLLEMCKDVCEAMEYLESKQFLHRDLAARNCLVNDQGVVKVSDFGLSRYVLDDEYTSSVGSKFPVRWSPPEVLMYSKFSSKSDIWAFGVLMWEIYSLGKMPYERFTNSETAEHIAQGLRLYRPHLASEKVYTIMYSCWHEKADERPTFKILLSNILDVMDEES

[14] = target: Serine/threonine-protein kinase TAO1 (Homo sapiens, UniProt Q7L7X3); assay type: functional
Sequence of Serine/threonine-protein kinase TAO1 (Q7L7X3 whole entry): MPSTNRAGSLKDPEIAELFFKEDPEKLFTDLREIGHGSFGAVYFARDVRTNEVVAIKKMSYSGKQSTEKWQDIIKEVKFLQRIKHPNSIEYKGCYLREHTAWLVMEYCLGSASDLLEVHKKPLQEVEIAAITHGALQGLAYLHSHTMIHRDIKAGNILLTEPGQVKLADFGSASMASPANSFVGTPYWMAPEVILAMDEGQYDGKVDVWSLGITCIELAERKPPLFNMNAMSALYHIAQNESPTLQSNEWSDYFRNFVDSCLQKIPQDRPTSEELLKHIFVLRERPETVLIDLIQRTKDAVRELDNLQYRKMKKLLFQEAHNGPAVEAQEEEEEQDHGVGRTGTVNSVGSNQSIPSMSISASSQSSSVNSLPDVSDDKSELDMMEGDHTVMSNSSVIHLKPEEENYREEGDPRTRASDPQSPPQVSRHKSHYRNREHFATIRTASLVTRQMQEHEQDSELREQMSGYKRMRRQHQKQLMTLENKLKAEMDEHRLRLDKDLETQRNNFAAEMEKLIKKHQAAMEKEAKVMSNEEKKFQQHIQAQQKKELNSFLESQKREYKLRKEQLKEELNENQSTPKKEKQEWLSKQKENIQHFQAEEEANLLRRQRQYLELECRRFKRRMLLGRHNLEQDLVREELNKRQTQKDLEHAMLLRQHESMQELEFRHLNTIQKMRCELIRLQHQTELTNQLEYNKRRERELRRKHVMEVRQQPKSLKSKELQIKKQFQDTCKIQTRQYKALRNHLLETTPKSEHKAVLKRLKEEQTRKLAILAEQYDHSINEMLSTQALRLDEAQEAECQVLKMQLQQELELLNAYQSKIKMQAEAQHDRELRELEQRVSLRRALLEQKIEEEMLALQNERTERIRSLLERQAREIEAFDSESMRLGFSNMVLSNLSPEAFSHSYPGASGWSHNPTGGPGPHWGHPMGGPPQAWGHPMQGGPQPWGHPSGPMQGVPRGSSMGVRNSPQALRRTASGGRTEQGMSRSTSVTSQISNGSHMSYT

Focal adhesion kinase 1 = Focal adhesion kinase 1 (Homo sapiens, UniProt Q05397); assay type: functional;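 further: measured as one member of a kinome panel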
[15] = target: Platelet-derived growth factor receptor alpha (Homo sapiens, UniProt P16234); assay: Navigating the Kinome. Panel member name: PDGFRA; assay type: functional
[16] = target: Tyrosine-protein kinase Fyn (Homo sapiens, UniProt P06241); assay type: functional
Sequence of Tyrosine-protein kinase Fyn (P06241 whole entry): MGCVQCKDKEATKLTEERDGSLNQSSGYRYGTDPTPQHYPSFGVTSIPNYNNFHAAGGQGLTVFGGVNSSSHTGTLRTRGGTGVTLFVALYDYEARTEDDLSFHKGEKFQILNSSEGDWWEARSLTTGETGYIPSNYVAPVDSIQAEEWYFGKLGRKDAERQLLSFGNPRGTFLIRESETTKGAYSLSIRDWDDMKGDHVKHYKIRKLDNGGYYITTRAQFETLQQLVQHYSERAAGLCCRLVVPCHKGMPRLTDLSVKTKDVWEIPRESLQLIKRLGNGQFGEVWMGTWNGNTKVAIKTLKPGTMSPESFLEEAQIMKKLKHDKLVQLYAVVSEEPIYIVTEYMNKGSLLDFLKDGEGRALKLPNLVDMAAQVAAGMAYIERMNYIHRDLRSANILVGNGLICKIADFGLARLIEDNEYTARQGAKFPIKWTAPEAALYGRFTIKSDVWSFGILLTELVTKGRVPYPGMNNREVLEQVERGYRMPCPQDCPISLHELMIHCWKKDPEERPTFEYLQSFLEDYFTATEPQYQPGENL

[17] = target: Cyclin-dependent kinase 8 (Homo sapiens, UniProt P49336); assay: Navigating the Kinome. Panel member name: CDK8; assay type: functional
[18] = target: Calcium/calmodulin-dependent protein kinase type II subunit alpha (Homo sapiens, UniProt Q9UQM7); assay: Navigating the Kinome. Panel member name: CAMK2A; assay type: functional
[19] = target: Cell division cycle 7-related protein kinase (Homo sapiens, UniProt O00311); assay type: functional;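 further: value obtained from a kinome-wide kinase panel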
Wee1-like protein kinase = Wee1-like protein kinase (Homo sapiens, UniProt P30291); assay: Navigating the Kinome. Panel member name: WEE1; assay type: functional
Sequence of Wee1-like protein kinase (P30291 whole entry): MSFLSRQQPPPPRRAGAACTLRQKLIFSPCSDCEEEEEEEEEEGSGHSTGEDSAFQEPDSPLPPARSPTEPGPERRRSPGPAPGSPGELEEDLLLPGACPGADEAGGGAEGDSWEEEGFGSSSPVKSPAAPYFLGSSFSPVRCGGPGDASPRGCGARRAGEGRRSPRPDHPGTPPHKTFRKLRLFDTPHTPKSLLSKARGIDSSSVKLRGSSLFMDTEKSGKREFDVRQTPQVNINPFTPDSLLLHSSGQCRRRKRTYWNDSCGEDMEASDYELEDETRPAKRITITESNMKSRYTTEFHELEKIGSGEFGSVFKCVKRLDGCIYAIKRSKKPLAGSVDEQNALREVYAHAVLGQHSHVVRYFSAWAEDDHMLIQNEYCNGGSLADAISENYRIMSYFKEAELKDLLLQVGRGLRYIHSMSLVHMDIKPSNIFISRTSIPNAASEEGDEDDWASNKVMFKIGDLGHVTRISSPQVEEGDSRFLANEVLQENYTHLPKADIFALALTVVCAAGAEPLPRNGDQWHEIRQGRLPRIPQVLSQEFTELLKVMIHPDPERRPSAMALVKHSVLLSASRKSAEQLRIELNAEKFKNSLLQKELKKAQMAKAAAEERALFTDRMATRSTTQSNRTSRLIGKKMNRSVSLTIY

[20] = target: Dual specificity tyrosine-phosphorylation-regulated kinase 1B (Homo sapiens, UniProt Q9Y463); assay: Navigating the Kinome. Panel member name: DYRK1B; assay type: functional
[21] = target: Glycogen synthase kinase-3 beta (Homo sapiens, UniProt P49841); assay type: functional;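 further: value comes from a broad kinome profiling panel, with GSK3B as the panel member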
[22] = target: Cyclin-dependent kinase 9 (Homo sapiens, UniProt P50750); assay type: functional;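 further: value from the CDK9 entry of a kinome-spanning kinase panel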
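Wherever AC50 is given: cells exposed to compound for roughly 70 hours or longer before luminescence read.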

Structure (SMILES): c1cc(SC2CCCCC2)cc(-c2nc3cnccn3c2NC2CCCCC2)c1
AC50 [5]: 1.58 µM (active)
IC50 (CHO): 23.4 µM (inactive)
IC50 (Beta Lactamase): 4.83 µM (active)

Structure (SMILES): CCOc1nc(Nc2ccccc2)nc(Nc2ccc(-c3nc4ccccc4o3)cc2)n1
IC50 [8]: > 99 µM (inactive)
IC50 [9]: > 99 µM (inactive)

Structure (SMILES): Fc1ccc(Nc2ncnc(Nc3ccc4cn[nH]c4c3)n2)cc1
Ki [19]: 0.0501 µM (active)
Ki (Wee1-like protein kinase): > 3.16 µM (inactive)

The next lines start with the values.

EC50 [1]: > 25 µM (inactive)
EC50 [2]: > 25 µM (inactive)
EC50 [3]: > 25 µM (inactive)
EC50 [4]: > 25 µM (inactive)
Structure (SMILES): CC/N=C1\S/C(=C\c2cc(C)n(-c3ccccc3F)c2C)C(=O)N1CC

IC50 [6]: 3.04 µM (active)
IC50 [7]: 3.04 µM (active)
Structure (SMILES): N#CC(c1ccccc1)c1c(Cl)cnn(Cc2ccc3ccccc3c2)c1=O (stereo unspecified)

Ki [10]: > 6.31 µM (inactive)
Ki [11]: 1.26 µM (active)
Ki [12]: > 6.31 µM (inactive)
Ki [13]: > 6.31 µM (inactive)
Ki [14]: 2.51 µM (active)
Ki (Focal adhesion kinase 1): > 6.31 µM (inactive)
Ki [15]: 0.794 µM (active)
Ki [16]: > 6.31 µM (inactive)
Ki [17]: 3.16 µM (active)
Ki [18]: > 7.94 µM (inactive)
Structure (SMILES): CC(C)(C)c1cc(NC(=O)Nc2cccc3ccccc23)n(-c2cccc(C(=O)N(CCN)CCO)c2)n1

Ki [20]: 2.51 µM (active)
Ki [21]: 3.16 µM (active)
Ki [22]: 1.58 µM (active)
Structure (SMILES): CC1c2cccn2CCN1Cc1nc2scc(-c3ccco3)c2c(=O)[nH]1 (stereo unspecified)
